Read-outs that look alike come from different tables or passages of the source.
Target: T1, HCV NS3/4A protease complex (Hepatitis C virus genotype 1a, UniProt P27958, C1454S/C1711G)
T1 construct: recombinant HCV NS3/4A protease complex (amino acids 1027 to 1711); inferred from the pET21b vector and Ni-NTA purification; made in house; host or cells: Escherichia coli BL21 (DE3)
Assay: FRET peptide assay to monitor HCV NS3/4A proteolytic activity
Type: biochemical
Excerpt: HCV NS3 protease complexes, derived from the BMS strain, H77 strain or J4L6S strain, were generated, as described below. These purified recombinant proteins were generated for use in a homogeneous assay (see below) to provide an indication of how effective compounds of the present disclosure would be in inhibiting HCV NS3 proteolytic activity.
The H77 and J4L6S strains were used for production of recombinant NS3/4A protease complexes. DNA encoding the recombinant HCV NS3/4A protease complex (amino acids 1027 to 1711) for these strains was manipulated as described by P. Gallinari et al. (see Gallinari P, Paolini C, Brennan D, Nardi C, Steinkuhler C, De Francesco R. Biochemistry. 38(17):5620-32, (1999)). Briefly, a three-lysine solubilizing tail was added at the 3′-end of the NS4A coding region. The cysteine in the P1 position of the NS4A-NS4B cleavage site (amino acid 1711) was changed to a glycine to avoid the proteolytic cleavage of the lysine tag. Furthermore, a cysteine to serine mutation was introduced by PCR at amino acid position 1454 to prevent the autolytic cleavage in the NS3 helicase domain. The variant DNA fragment was cloned in the pET21b bacterial expression vector (Novagen) and the NS3/4A complex was expressed in Escherichia coli strain BL21 (DE3) (Invitrogen) following the protocol described by P. Gallinari et al. (see Gallinari P, Brennan D, Nardi C, Brunetti M, Tomei L, Steinkuhler C, De Francesco R., J Virol. 72(8):6758-69 (1998)) with modifications. Briefly, the NS3/4A protease complex expression was induced with 0.5 millimolar (mM) Isopropyl β-D-1-thiogalactopyranoside (IPTG) for 22 hours (h) at 20° C. A typical fermentation (1 Liter (L)) yielded approximately 10 grams (g) of wet cell paste. The cells were resuspended in lysis buffer (10 mL/g) consisting of 25 mM N-(2-Hydroxyethyl)Piperazine-N′-(2-Ethane Sulfonic acid) (HEPES), pH 7.5, 20% glycerol, 500 mM Sodium Chloride (NaCl), 0.5% Triton X-100, 1 microgram/milliliter (“μg/mL”) lysozyme, 5 mM Magnesium Chloride (MgCl2), 1 μg/ml DnaseI, 5 mM β-Mercaptoethanol (βME), Protease inhibitor-Ethylenediamine Tetraacetic acid (EDTA) free (Roche), homogenized and incubated for 20 minutes (min) at 4° C. The homogenate was sonicated and clarified by ultra-centrifugation at 235000 g for 1 hour (h) at 4° C. Imidazole was added to the supernatant to a final concentration of 15 mM and the pH adjusted to 8.0. The crude protein extract was loaded on a Nickel-Nitrilotriacetic acid (Ni-NTA) column pre-equilibrated with buffer B (25 mM HEPES, pH 8.0, 20% glycerol, 500 mM NaCl, 0.5% Triton X-100, 15 mM imidazole, 5 mM βME). The sample was loaded at a flow rate of 1 ml/min. The column was washed with 15 column volumes of buffer C (same as buffer B except with 0.2% Triton X-100). The protein was eluted with 5 column volumes of buffer D (same as buffer C except with 200 mM Imidazole).
NS3/4A protease complex-containing fractions were pooled and loaded on a desalting column Superdex-S200 pre-equilibrated with buffer D (25mM HEPES, pH 7.5, 20% glycerol, 300 mM NaCl, 0.2% Triton X-100, 10 mM βME). Sample was loaded at a flow rate of 1 mL/min. NS3/4A protease complex-containing fractions were pooled and concentrated to approximately 0.5 mg/ml. The purity of the NS3/4A protease complexes, derived from the BMS, H77 and J4L6S strains, were judged to be greater than 90% by SDS-PAGE and mass spectrometry analyses. The enzyme was stored at −80° C., thawed on ice and diluted prior to use in assay buffer.
The purpose of this in vitro assay was to measure the inhibition of HCV NS3 protease complexes, derived from the BMS strain, H77 strain or J4L6S strain, as described above, by compounds of the present disclosure. This assay provides an indication of how effective compounds of the present disclosure would be in inhibiting HCV NS3 proteolytic activity.
In order to monitor HCV NS3/4A protease activity, an NS3/4A peptide substrate was used. […]

[1] = HCV NS3/4A protease complex, strain not stated, class symbols, read-out: IC50
[2] = HCV NS3/4A protease complex, strain not stated, numeric values, read-out: IC50

T1 sequence (P27958 1027-1711 C1454S/C1711G, one chain of several): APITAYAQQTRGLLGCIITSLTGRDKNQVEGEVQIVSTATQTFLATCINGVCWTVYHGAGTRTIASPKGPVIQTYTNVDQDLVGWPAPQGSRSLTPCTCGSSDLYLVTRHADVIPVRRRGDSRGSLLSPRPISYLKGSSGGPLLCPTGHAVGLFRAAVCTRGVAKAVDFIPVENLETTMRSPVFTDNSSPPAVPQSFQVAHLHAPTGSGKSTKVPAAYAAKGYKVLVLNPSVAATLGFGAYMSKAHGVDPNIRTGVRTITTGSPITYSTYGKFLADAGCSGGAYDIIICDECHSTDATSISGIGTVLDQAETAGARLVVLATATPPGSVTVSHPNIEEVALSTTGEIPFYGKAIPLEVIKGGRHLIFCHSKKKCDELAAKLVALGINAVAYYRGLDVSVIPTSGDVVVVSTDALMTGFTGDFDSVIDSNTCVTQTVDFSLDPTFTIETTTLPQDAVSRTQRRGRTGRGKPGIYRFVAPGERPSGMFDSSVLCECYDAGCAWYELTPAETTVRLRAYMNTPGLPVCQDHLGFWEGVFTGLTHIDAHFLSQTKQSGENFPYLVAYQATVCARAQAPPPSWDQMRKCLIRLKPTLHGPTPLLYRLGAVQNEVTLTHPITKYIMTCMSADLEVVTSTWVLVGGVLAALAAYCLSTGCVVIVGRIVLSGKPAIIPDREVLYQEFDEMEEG

| Structure (SMILES) | IC50 [1] [nM] | also measured |
| --- | --- | --- |
| COc1cc2ccc3cc2cc1CCCC(C)(C)CCNC(=O)N[C@@H](C(C)(C)C)C(=O)N1C[C@@]3(OC)C[C@H]1C(=O)N[C@]1(C(=O)NS(=O)(=O)C2CC2)C[C@H]1C1CC1 [Example 40] | 1 to 10 | – |
| C=C[C@@H]1C[C@]1(NC(=O)[C@@H]1C[C@]2(OC)CN1C(=O)[C@H](C(C)(C)C)NC(=O)OCCCCCc1cc2cc2ccccc12)C(=O)NS(=O)(=O)C1CC1 [Example 25] | – | IC50 [2]: 240 nM |
| C=C[C@@H]1C[C@]1(NC(=O)[C@@H]1C[C@]2(OC)CN1C(=O)[C@H](C(C)(C)C)NC(=O)OCCCCCCCc1cc3cc2ccc3cc1OC)C(=O)NS(=O)(=O)C1CC1 [Example 20] | 11 to 12 | – |
| COc1cc2ccc3cc2cc1CCCC1(CCOC(=O)N[C@@H](C(C)(C)C)C(=O)N2C[C@@]3(OC)C[C@H]2C(=O)N[C@]2(C(=O)NS(=O)(=O)C3CC3)C[C@H]2C2CC2)CC1 [Example 34] | – | IC50 [2]: 1 nM |
| C=C[C@@H]1C[C@]1(NC(=O)[C@@H]1C[C@]2(OC)CN1C(=O)[C@H](C(C)(C)C)NC(=O)OCCCCCCc1cc3cc2ccc3cc1N(C)C)C(=O)NS(=O)(=O)C1CC1 [Example 29] | 1 to 10 | – |
| COc1cc2ccc3cc2cc1CCCCOC(=O)N[C@@H](C(C)(C)C)C(=O)N1C[C@@]3(OC)C[C@H]1C(=O)N[C@]1(C(=O)NS(=O)(=O)C2CC2)C[C@H]1C1CC1 [Example 2] | 11 to 12 | – |
| C=C[C@@H]1C[C@]1(NC(=O)[C@@H]1C[C@]2(OC)CN1C(=O)[C@H](C(C)(C)C)NC(=O)OCCCCCc1cc3cc2ccc3cc1OC)C(=O)NS(=O)(=O)C1CC1 [Example 5] | 1 to 10 | – |
| C=C[C@@H]1C[C@]1(NC(=O)[C@@H]1C[C@]2(OC)CN1C(=O)[C@H](C(C)(C)C)NC(=O)OCCCCc1cc3cc2ccc3cc1OC)C(=O)NS(=O)(=O)C1CC1 [Example 3] | 1 to 10 | – |
| COc1cc2ccc3cc2cc1CCCCCCCOC(=O)N[C@@H](C(C)(C)C)C(=O)N1C[C@@]3(OC)C[C@H]1C(=O)N[C@]1(C(=O)NS(=O)(=O)C2CC2)C[C@H]1C1CC1 [Example 21] | 21 to 3200 | – |
| COc1cc2ccc3cc2cc1CCCCCCOC(=O)N[C@@H](C(C)(C)C)C(=O)N1C[C@@]3(O)C[C@H]1C(=O)N[C@]1(C(=O)NS(=O)(=O)C2CC2)C[C@H]1C1CC1 [Example 26] | 1 to 10 | – |
| C=C[C@@H]1C[C@]1(NC(=O)[C@@H]1C[C@]2(OC)CN1C(=O)[C@H](C(C)(C)C)NC(=O)OCCCCCCCCc1cc3cc2ccc3cc1OC)C(=O)NS(=O)(=O)C1CC1 [Example 23] | 1 to 10 | – |
| C=C[C@@H]1C[C@]1(NC(=O)[C@@H]1C[C@]2(OC)CN1C(=O)[C@H](C(C)(C)C)NC(=O)OCCCCCCc1cc2cc2ccccc12)C(=O)NS(=O)(=O)C1CC1 [Example 24] | 1 to 10 | – |
| COCO[C@@]12C[C@@H](C(=O)N[C@]3(C(=O)NS(=O)(=O)C4CC4)C[C@H]3C3CC3)N(C1)C(=O)[C@H](C(C)(C)C)NC(=O)OCCC(C)(C)CCCc1cc3cc2ccc3cc1OC [Example 28] | 1 to 10 | – |
| COc1cc2ccc3cc2cc1CCCCCCCCOC(=O)N[C@@H](C(C)(C)C)C(=O)N1C[C@@]3(OC)C[C@H]1C(=O)N[C@]1(C(=O)NS(=O)(=O)C2CC2)C[C@H]1C1CC1 [Example 22] | 1 to 10 | – |
| CO[C@@]12C[C@@H](C(=O)N[C@]3(C(=O)NS(=O)(=O)C4CC4)C[C@H]3C3CC3)N(C1)C(=O)[C@H](C(C)(C)C)NC(=O)OCCCCCCc1cc3cc2ccc3cc1N(C)C [Example 30] | 1 to 10 | – |
| COc1cc2ccc3cc2cc1CCCC(C)(C)CCOC(=O)N[C@@H](C1CCOCC1)C(=O)N1C[C@@]3(OC)C[C@H]1C(=O)N[C@]1(C(=O)NS(=O)(=O)C2CC2)C[C@H]1C1CC1 [Example 39] | 1 to 10 | – |
| COc1cc2ccc3cc2cc1CCCCCCCC(=O)N[C@@H](C(C)(C)C)C(=O)N1C[C@@]3(OC)C[C@H]1C(=O)N[C@]1(C(=O)NS(=O)(=O)C2CC2)C[C@H]1C1CC1 [Example 41] | 1 to 10 | – |
| CO[C@@]12C[C@@H](C(=O)N[C@]3(C(=O)NS(=O)(=O)C4CC4)C[C@H]3C3CC3)N(C1)C(=O)[C@H](C(C)(C)C)NC(=O)OCCCCCCc1ccc3ccc2cc3c1 [Example 31] | – | IC50: 1 to 10 nM |
| COc1ccc2ccc3cc2c1CCCCCOC(=O)N[C@@H](C(C)(C)C)C(=O)N1C[C@@]3(OC)C[C@H]1C(=O)N[C@]1(C(=O)NS(=O)(=O)C2CC2)C[C@H]1C1CC1 [Example 36] | 21 to 3200 | – |
| COc1cc2ccc3cc2cc1CCCC(C)(C)CCOC(=O)N[C@@H](C(C)C)C(=O)N1C[C@@]3(OC)C[C@H]1C(=O)N[C@]1(C(=O)NS(=O)(=O)C2CC2)C[C@H]1C1CC1 [Example 38] | 1 to 10 | – |
| COc1c2cc3cc(ccc3c1Br)[C@]1(OC)C[C@@H](C(=O)N[C@]3(C(=O)NS(=O)(=O)C4CC4)C[C@H]3C3CC3)N(C1)C(=O)[C@H](C(C)(C)C)NC(=O)OCCC(C)(C)CCC2 [Example 33] | 11 to 12 | – |
| COc1cc2ccc3cc2cc1CCCCCOC(=O)N[C@@H](C(C)(C)C)C(=O)N1C[C@@]3(OC)C[C@H]1C(=O)N[C@]1(C(=O)NS(=O)(=O)C2CC2)C[C@H]1C1CC1 [Example 6] | 1 to 10 | – |
| COc1cc2ccc3cc2cc1CCCC(C)(C)CCOC(=O)N[C@@H](C(C)(C)C)C(=O)N1C[C@@]3(OC(=O)N(C)C)C[C@H]1C(=O)N[C@]1(C(=O)NS(=O)(=O)C2CC2)C[C@H]1C1CC1 [Example 27] | 1 to 10 | – |
| COc1c2cc3cc(ccc3c1Cl)[C@]1(OC)C[C@@H](C(=O)N[C@]3(C(=O)NS(=O)(=O)C4CC4)C[C@H]3C3CC3)N(C1)C(=O)[C@H](C(C)(C)C)NC(=O)OCCC(C)(C)CCC2 [Example 32] | – | IC50 [2]: 25 nM |
| COc1ccc2ccc3cc2c1CCCCCCOC(=O)N[C@@H](C(C)(C)C)C(=O)N1C[C@@]3(OC)C[C@H]1C(=O)N[C@]1(C(=O)NS(=O)(=O)C2CC2)C[C@H]1C1CC1 [Example 35] | – | IC50 [2]: 413 nM |
| COc1ccc2ccc3cc2c1CCCCOC(=O)N[C@@H](C(C)(C)C)C(=O)N1C[C@@]3(OC)C[C@H]1C(=O)N[C@]1(C(=O)NS(=O)(=O)C2CC2)C[C@H]1C1CC1 [Example 37] | 21 to 3200 | – |

From patent publication US20100080770A1, “Hepatitis C Virus Inhibitors” (priority 2008, published 2010)
